Results on eleven molecules are retold here after ChEMBL document CHEMBL1201862, “PubChem BioAssay data set” (2004).

Test systems include RPMI-8226; Malme-3M; SNB-75; UACC-257; SK-MEL-28; A549; KM12; HL-60; LOX IMVI; U-251; HOP-62; M19-MEL; ACHN; IGROV-1; MDA-N; HOP-92; MDA-MB-231; OVCAR-5; MDA-MB-435; NCI-H23.
Common to all, as to test: DTP human tumour cell line panel, 48 h

Molecules are shown by their SMILES.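 Assay format: 96-well plates, 48-hour exposure. Abbreviation: GI50, concentration required for 50% inhibition of growth.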 Calls of active or inactive are those of the source. Cut-off read from the data, not from the text of the source: active = GI50 up to about 1.1 µM and inactive = higher.

In the case of `CC(C)CCC[C@@H](C)C1CCC2[C@@H]3CC=C4C[C@@H](OC(=O)CCC(=O)NCC[N+](C)(C)CCCS(=O)(=O)[O-])CC[C@]4(C)C3CC[C@@]21C` (stereo not given in full), the GI50 was 20 µM (inactive) in the assay with RPMI-8226; 22.5 µM (inactive) with Malme-3M; 21.1 µM (inactive) in the assay on SNB-75; 23.2 µM (inactive) in the assay with UACC-257; 17.8 µM (inactive) in the assay with SK-MEL-28; 17.6 µM (inactive) with A549. In addition, the GI50 with KM12 is 20.5 µM (inactive); in the assay on HL-60 it was 18.8 µM (inactive); in the assay on LOX IMVI, 17.2 µM (inactive); in the assay on U-251, 18.3 µM (inactive); with HOP-62 it was 17.6 µM (inactive); in the assay on M19-MEL it was 18.5 µM (inactive). In the assay with ACHN, the GI50 is 23.9 µM (inactive).

Consider `Clc1ccc(-c2ccc(-c3nn4c(CNc5ccccc5)nnc4s3)o2)c(Cl)c1`, for which the GI50 in the assay on IGROV-1 is 22.8 µM (inactive); in the assay on MDA-N, 45.1 µM (inactive); in the assay on HOP-92, 29.2 µM (inactive); in the assay with MDA-MB-231, 69.8 µM (inactive); with RPMI-8226, 36.6 µM (inactive); with Malme-3M, > 100 µM (inactive). In addition, the GI50 in the assay with SNB-75 was 50.7 µM (inactive); in the assay with UACC-257, 53.1 µM (inactive); with SK-MEL-28, > 100 µM (inactive); in the assay on OVCAR-5 it was > 100 µM (inactive); with MDA-MB-435, 58.1 µM (inactive); with A549 it was 72.3 µM (inactive). Moreover, the GI50 is 60 µM (inactive) in the assay on KM12; 53.6 µM (inactive) in the assay on NCI-H23; 44.3 µM (inactive) in the assay on HL-60; > 100 µM (inactive) with LOX IMVI; > 100 µM (inactive) in the assay with U-251; > 100 µM (inactive) with HOP-62. Also, the GI50 in the assay with ACHN was > 100 µM (inactive).

For `Cc1cccc(/C=N/NC(=S)NCCc2ccccn2)n1`, the GI50 is 20.1 µM (inactive) in the assay with IGROV-1; 60.8 µM (inactive) in the assay with MDA-N; 22.3 µM (inactive) in the assay with HOP-92; 39 µM (inactive) in the assay with MDA-MB-231; > 53.2 µM (inactive) in the assay on RPMI-8226; 47.6 µM (inactive) with Malme-3M. Also, the GI50 in the assay on SNB-75 is 20.3 µM (inactive); in the assay with UACC-257, 33.8 µM (inactive); in the assay with SK-MEL-28 it was 56.1 µM (inactive); with OVCAR-5 it was 46.7 µM (inactive); in the assay with MDA-MB-435, 27.4 µM (inactive); in the assay on A549 it was 36.6 µM (inactive). Moreover, the GI50 is 36.4 µM (inactive) with KM12; 26.6 µM (inactive) with NCI-H23; 15.6 µM (inactive) in the assay on HL-60; 18.3 µM (inactive) in the assay with LOX IMVI; 20.4 µM (inactive) with U-251; 18 µM (inactive) in the assay with HOP-62. Moreover, the GI50 in the assay with ACHN was 13.3 µM (inactive).

With `N#CCN(Cc1ccccc1)[C@H]1CCC[C@]1(O)/C=C/c1ccc2c(c1)OCO2`, the GI50 is 23.1 µM (inactive) in the assay on IGROV-1; 17.6 µM (inactive) with MDA-N; 18.2 µM (inactive) in the assay with HOP-92; 21.4 µM (inactive) in the assay with MDA-MB-231; 19.8 µM (inactive) in the assay on RPMI-8226; 17.6 µM (inactive) in the assay with Malme-3M. In addition, the GI50 is 28.4 µM (inactive) with SNB-75; 22.7 µM (inactive) in the assay on UACC-257; 17.3 µM (inactive) in the assay with SK-MEL-28; 39.3 µM (inactive) in the assay with OVCAR-5; 20 µM (inactive) in the assay on MDA-MB-435; 38.4 µM (inactive) in the assay on A549. Also, the GI50 in the assay with KM12 was 20 µM (inactive); in the assay with NCI-H23, 24.9 µM (inactive); with HL-60 it was 16.2 µM (inactive); in the assay with LOX IMVI, 15.7 µM (inactive); in the assay with U-251 it was 19.2 µM (inactive); in the assay on HOP-62, 26.3 µM (inactive). For the same molecule, the GI50 in the assay with ACHN was 42 µM (inactive).

For `NC(=O)C(N)=O`, the GI50 with HOP-92, in the assay on RPMI-8226, in the assay with Malme-3M, with UACC-257, in the assay on SK-MEL-28 and with OVCAR-5 was > 100 µM (inactive) throughout. Also, the GI50 in the assay with A549, in the assay on KM12, in the assay on NCI-H23, in the assay with HL-60, in the assay on LOX IMVI and with U-251 was > 100 µM (inactive) throughout. For the same molecule, the GI50 with HOP-62, with M19-MEL and in the assay on ACHN was > 100 µM (inactive) throughout.

In the case of `CCOC(=O)c1sc2nc1CSc1sc(=S)sc1SCc1nc(sc1C(=O)OCC)-c1nc(c(C(=O)OCC)s1)CSc1sc(=S)sc1SCc1nc-2sc1C(=O)OCC`, the GI50 in the assay with IGROV-1, with MDA-N, with HOP-92, in the assay on MDA-MB-231, with RPMI-8226 and in the assay on Malme-3M was > 10 µM (inactive) in each case. Moreover, the GI50 in the assay with SNB-75, in the assay on UACC-257, in the assay on SK-MEL-28, in the assay with OVCAR-5, in the assay on MDA-MB-435 and with A549 was > 10 µM (inactive) in each case. The GI50 in the assay on KM12, in the assay on NCI-H23, in the assay on HL-60, with LOX IMVI, in the assay with U-251 and in the assay on HOP-62 was > 10 µM (inactive) each time. Further, the GI50 in the assay with ACHN was > 10 µM (inactive).

As for `CC(=O)c1c2c(cc3c1CC1(Cc4cc5c(cc4C1)C(=O)CCC5)C3)CCCC2` (stereo not given), the GI50 in the assay with IGROV-1 is 3.45 µM (inactive); with MDA-N, 2.87 µM (inactive); with HOP-92, 2.55 µM (inactive); with MDA-MB-231, 9.25 µM (inactive); in the assay on RPMI-8226, 3.48 µM (inactive); in the assay with Malme-3M, 6.64 µM (inactive). Moreover, the GI50 is 2.92 µM (inactive) in the assay on SNB-75; 3.34 µM (inactive) with UACC-257; 7.38 µM (inactive) in the assay with SK-MEL-28; 35.2 µM (inactive) in the assay with OVCAR-5; 2.94 µM (inactive) with MDA-MB-435; > 21.5 µM (inactive) in the assay with A549. For the same molecule, the GI50 in the assay on KM12 was 5.3 µM (inactive); with NCI-H23, 6.12 µM (inactive); in the assay on HL-60 it was 1.82 µM (inactive); in the assay on LOX IMVI it was 7.18 µM (inactive); with U-251, 10.8 µM (inactive); in the assay on HOP-62 it was 5.09 µM (inactive). For the same molecule, the GI50 with ACHN was 2.97 µM (inactive).

Consider `CCCCN(CCCC)C(=O)C(=O)CC(=O)c1ccc(Br)cc1`, for which the GI50 with IGROV-1, with HOP-92, in the assay on RPMI-8226, in the assay on Malme-3M, with UACC-257 and in the assay with OVCAR-5 was > 100 µM (inactive) throughout. Further, the GI50 in the assay on A549, in the assay on KM12, in the assay with NCI-H23, in the assay with HL-60, in the assay with LOX IMVI and in the assay on U-251 was > 100 µM (inactive) in each case. For the same molecule, the GI50 in the assay on HOP-62, in the assay with M19-MEL and in the assay with ACHN was > 100 µM (inactive) each time.

With `O=C(O)C1CC(c2ccccc2)=NN1c1ccccc1` (stereo not given), the GI50 in the assay with IGROV-1 is > 100 µM (inactive); in the assay on MDA-N it was 99.5 µM (inactive); in the assay with HOP-92, 69.3 µM (inactive); in the assay with MDA-MB-231 it was > 100 µM (inactive); with RPMI-8226 it was 40.3 µM (inactive); in the assay on Malme-3M, 32.5 µM (inactive). For the same molecule, the GI50 in the assay with SNB-75 was > 100 µM (inactive); in the assay on UACC-257, 51.9 µM (inactive); in the assay on SK-MEL-28, > 100 µM (inactive); with OVCAR-5, > 100 µM (inactive); with MDA-MB-435, 63.4 µM (inactive); in the assay with A549, 70 µM (inactive). Moreover, the GI50 in the assay with KM12 is 42.9 µM (inactive); in the assay on NCI-H23, 52.6 µM (inactive); in the assay with HL-60, 89.7 µM (inactive); in the assay on LOX IMVI, 41.9 µM (inactive); with U-251, 62.1 µM (inactive); with HOP-62, > 100 µM (inactive). Also, in the assay on ACHN, the GI50 was 91.6 µM (inactive).

For the molecule `C[N+](C)(C)CCC(=O)CC[N+](C)(C)C`, the GI50 in the assay with IGROV-1 was 87.3 µM (inactive); with RPMI-8226 it was 4.68 µM (inactive); in the assay with Malme-3M, 19.7 µM (inactive); in the assay on SNB-75 it was 19.9 µM (inactive); with UACC-257, 17.6 µM (inactive); with SK-MEL-28, 21.6 µM (inactive). Moreover, the GI50 in the assay with A549 was > 100 µM (inactive); in the assay on KM12, 20 µM (inactive); in the assay on NCI-H23 it was 24.5 µM (inactive); in the assay on HL-60 it was 4.09 µM (inactive); with U-251, > 100 µM (inactive); with HOP-62, > 100 µM (inactive). Further, the GI50 is 23.5 µM (inactive) in the assay on M19-MEL and 17 µM (inactive) with ACHN.

With `C[C@@H]1O[C@@H](O[C@H]2CC[C@]3(C=O)[C@H]4CC[C@]5(C)[C@@H](C6=CC(=O)OC6)CC[C@]5(O)[C@@H]4CC[C@]3(O)C2)[C@H](O)[C@H](O)[C@H]1O` [CONVALLATOXIN], the GI50 in the assay on IGROV-1 was < 0.01 µM (active); in the assay with MDA-N it was 4.3e-05 µM (active); with HOP-92, 4.83e-05 µM (active); in the assay with MDA-MB-231, 0.00013 µM (active); in the assay on RPMI-8226, 4.45e-05 µM (active); in the assay on Malme-3M, 3.71e-05 µM (active). Moreover, the GI50 in the assay on SNB-75 was 4.3e-05 µM (active); in the assay with UACC-257, 6.67e-05 µM (active); in the assay on SK-MEL-28, 6.4e-05 µM (active); in the assay with OVCAR-5, 4.24e-05 µM (active); with MDA-MB-435, 4.23e-05 µM (active); with A549 it was < 0.01 µM (active). The GI50 with KM12 is 8.39e-05 µM (active); with NCI-H23 it was 9.93e-06 µM (active); in the assay on HL-60, 3.42e-05 µM (active); in the assay on LOX IMVI, 2.93e-05 µM (active); in the assay on U-251 it was 5.58e-05 µM (active); in the assay on HOP-62, 1.05e-05 µM (active). The GI50 with ACHN is 9.73e-06 µM (active).

The term GI50 denotes the concentration that inhibits growth by half.
